Measured values from patent US7544497B2, “Compositions for manipulating the lifespan and stress response of cells and organisms” (President and Fellows of Harvard College, priority 2003, dated 2009).

What was measured:
[1] = target: T1, SIRT1 deacetylase (Homo sapiens, UniProt Q96EB6); experiment: High-throughput SIRT1 screening protocol (384 well); type: biochemical; settings: 200 μM NAD+, 5 μM Fluor de Lys-SIRT1 substrate; roughly 50 μM
T1 construct: purchased BIOMOL
T1 sequence (Q96EB6 1-747): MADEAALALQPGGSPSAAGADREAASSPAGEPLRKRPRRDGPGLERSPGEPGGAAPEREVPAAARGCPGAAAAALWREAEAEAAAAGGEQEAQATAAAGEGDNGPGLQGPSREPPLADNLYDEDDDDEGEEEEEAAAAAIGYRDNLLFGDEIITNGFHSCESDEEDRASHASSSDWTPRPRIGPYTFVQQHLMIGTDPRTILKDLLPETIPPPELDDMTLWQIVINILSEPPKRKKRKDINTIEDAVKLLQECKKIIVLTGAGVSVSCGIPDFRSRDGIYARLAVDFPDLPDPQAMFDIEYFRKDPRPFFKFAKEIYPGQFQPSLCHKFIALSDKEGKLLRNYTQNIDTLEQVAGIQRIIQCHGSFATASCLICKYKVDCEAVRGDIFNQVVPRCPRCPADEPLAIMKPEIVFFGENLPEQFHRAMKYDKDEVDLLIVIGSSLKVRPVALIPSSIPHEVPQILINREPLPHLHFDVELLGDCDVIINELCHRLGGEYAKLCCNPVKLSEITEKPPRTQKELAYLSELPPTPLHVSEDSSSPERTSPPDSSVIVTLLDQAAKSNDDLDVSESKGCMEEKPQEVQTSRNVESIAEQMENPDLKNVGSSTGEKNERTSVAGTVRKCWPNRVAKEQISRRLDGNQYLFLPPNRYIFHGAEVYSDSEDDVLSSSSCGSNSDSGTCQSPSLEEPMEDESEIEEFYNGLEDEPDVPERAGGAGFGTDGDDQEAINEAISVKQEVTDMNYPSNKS
Experimental: The reaction mixture contains (final): 0.5 units/reaction SIRT1 deacetylase (BIOMOL); 200 μM NAD^+; 5 μM Fluor de Lys-SIRT1 substrate (BIOMOL); buffer (25 mM Tris/Cl, pH 8.0, 137 mM NaCl, 2.7 mM KCl, 1 mM MgCl2, and 1 mg/ml BSA). In addition, a reaction mixture containing no enzyme was made so that each well receiving compound has a corresponding “no enzyme control” well. Reactions were performed in black 384 well plates (NUNC) in a final volume of 25 μl/well.
The reactions were started by combining enzyme and substrate in a reaction mixture immediately prior to aliquoting in plates (or substrate only for “no enzyme control” plates). Mixture were aliquoted to plates using Biotek μFill (Biotek Instruments). Control mixtures were manually added to designated wells. A library compound was added at a desired concentration by pin transfer to both “with enzyme” and “no enzyme” plates. Compounds were added in at least triplicate (with enzyme reaction in duplicate and no enzyme controls) at a final concentration of roughly 50 μM. The plates were incubated at 37° C. for 30-60 minutes. Then 25 μl of 1× Developer II (BIOMOL) plus 2 mM nicotinamide were added to all wells to stop the reactions. The reactions were left for at least 30 minutes at 37° C. for the signal to develop. The plates were read in a microplate-reading fluorometer capable of excitation at a wavelength in the range of 350-380 nm and detection of emitted light in the range of 440-460 nm. A read time of 0.1 sec per well was used.

[2] = tested on: lysine 382 of p53 in U2OS osteosarcoma cells; experiment: p53 Ac-K382 Western blot after UV radiation; type: cell-based, human
[3] = target: recombinant GST-Sir2 (Saccharomyces cerevisiae, UniProt P06700); experiment: Sir2 deacetylation assay; type: biochemical, S. cerevisiae; settings: in vitro dose-response
Sequence of recombinant GST-Sir2 (P06700 whole entry): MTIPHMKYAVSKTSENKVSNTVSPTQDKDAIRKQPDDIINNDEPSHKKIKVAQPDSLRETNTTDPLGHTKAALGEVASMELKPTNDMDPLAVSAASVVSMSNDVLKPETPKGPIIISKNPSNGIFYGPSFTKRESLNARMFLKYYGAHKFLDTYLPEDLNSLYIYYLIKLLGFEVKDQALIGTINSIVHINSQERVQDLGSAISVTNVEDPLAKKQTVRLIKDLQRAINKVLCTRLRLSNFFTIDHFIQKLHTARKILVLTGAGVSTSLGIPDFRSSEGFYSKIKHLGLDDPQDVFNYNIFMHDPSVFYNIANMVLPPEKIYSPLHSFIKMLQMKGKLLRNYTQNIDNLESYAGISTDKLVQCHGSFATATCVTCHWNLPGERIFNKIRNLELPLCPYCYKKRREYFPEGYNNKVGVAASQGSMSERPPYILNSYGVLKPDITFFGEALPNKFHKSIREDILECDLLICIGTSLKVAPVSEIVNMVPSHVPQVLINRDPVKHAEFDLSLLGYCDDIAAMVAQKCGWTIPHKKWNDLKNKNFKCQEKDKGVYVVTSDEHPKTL
Experimental: To investigate whether these compounds could stimulate sirtuins in vivo, we utilized S. cerevisiae, an organism in which the upstream regulators and downstream targets of Sir2 are relatively well understood.
His6-tagged recombinant SIRT1 and GST-tagged recombinant Sir2 were prepared as previously described^26. From 0.1 to 1 μg of SIRT1 and 1.5 μg of Sir2 were used per deacetylation assay (in 50 μl total reaction) as previously described^26. SIRT1 assays and certain of those for Sir2 employed the p53-382 acetylated substrate (‘Fluor de Lys-SIRT1’, BIOMOL) rather than FdL.
Themed compound libraries (BIOMOL) were used for primary and secondary screening. […] For water soluble compounds and negative controls, 1% v/v DMSO was added to the assay. […] HeLa cells were grown and the cellular deacetylation assays were performed and read, as above, but in full-volume 96-well microplates (Corning Costar 3595). […] Calculation of net fluorescence increases included subtraction of a blank value, which in the case of Sir2 was obtained by omitting the enzyme from the reaction and in the case of SIRT1 by adding an inhibitor (200 μM suramin or 1 mM nicotinamide) to the reaction prior to the acetylated substrate. […]

[4] = tested on: S. cerevisiae; experiment: Yeast replicative lifespan by micro-manipulation; settings: for Average lifespan, growth on resveratrol: wild type untreated 21.0

Oc1ccc(/C=C/c2cc(O)cc(O)c2)cc1 [Resveratrol, 3,5,4′-Trihydroxy-trans-stilbene]
activation of SIRT1 (positive controls) [1]: 2.2 fold
level of Ac-K382 compared to untreated cells ([2]; 0.5 μM resveratrol, 4 hours pre-treatment, UV radiation): marked decrease
level of Ac-K382 at higher concentrations ([2]; >50 μM resveratrol): the effect was reversed
concentrations at which inhibition of Sir2 was seen [3]: greater than 100 μM
Average lifespan ([4]; 10 μM, complete 2% glucose medium, wild type untreated 22.9): 36.8 generations
Average lifespan, growth on resveratrol ([4]; 10 μM): 35.7 generations
Average lifespan, growth on resveratrol ([4]; 100 μM): 29.4 generations
Average lifespan, growth on resveratrol ([4]; 500 μM): 29.3 generations
Average lifespan, glucose-restricted+resveratrol (CR+R) ([4]; glucose restriction): 39.9 generations
Average lifespan, pnc1Δ+resveratrol ([4]; pnc1Δ untreated 19.2): 33.1 generations
Average lifespan, sir2Δ+resveratrol ([4]; sir2Δ untreated 9.9): 10.0 generations
Average lifespan, wild type+resveratrol (wt+R) ([4]; wild type untreated 19.0): 37.8 generations
